Blank lines part the entries; values can stand above or below the compound they belong to.
Key:
[1] = Salt screen: salt formation, crystallinity, hygroscopicity and other data; conditions: Table 1
physchem = conditions: water, thermodynamic from solid
[2] = Storage stability at controlled temperature/relative humidity; type: physicochemical
[3] = DSC/TGA thermal stability; type: physicochemical
Experimental: (§1) The amount of water taken up was calculated at about 0.60 wt % at 90% RH. […] The amount of water associated with this salt was calculated at about 0.5 wt % by Karl Fischer analysis and correlates with TGA and GVS analysis.
The TGA measurements were performed in a TA Instruments™ model Q500 or 2950, employing an open pan setup. The sample (about 10-30 mg) was placed in a platinum pan previously tared. The weight of the sample was measured accurately and recorded to a thousand of a milligram by the instrument. The furnace was purged with nitrogen gas at 100mL/min. Data were collected between room temperature and 300° C. at 10° C./min heating rate.
DSC measurements were performed in a TA Instruments™ model Q2000, Q1000 or 2920, employing an open pan setup. The sample (about 2-6 mg) was weighed in an aluminum pan and recorded accurately recorded to a hundredth of a milligram, and transferred to the DSC. The instrument was purged with nitrogen gas at 50 mL/min. Data were collected between room temperature and 300° C. at 10° C./min heating rate. The plot was made with the endothermic peaks pointing down.

[4] = Moisture sorption (water uptake); type: physicochemical
Experimental: as §1
Moisture sorption isotherms were collected in a VTI SGA-100 Symmetric Vapor Analyzer using approximately 10 mg of sample. The sample was dried at 60° C. until the loss rate of 0.0005 wt %/min was obtained for 10 minutes. The sample was tested at 25° C. and 3 or 4, 5, 15, 25, 35, 45, 50, 65, 75, 85, and 95% RH. Equilibration at each RH was reached when the rate of 0.0003 wt %/min for 35 minutes was achieved or a maximum of 600 minutes.

[5] = Karl Fischer water analysis; type: physicochemical; conditions: correlates with TGA and GVS
Experimental: as §1

[6] = Solid state stability on exposure to high humidity and temperature; type: physicochemical
Source text: Other solid state properties which may be used to characterize the crystalline N-1 forms of Compounds (I) and (II) are shown in the figures and discussed in the examples below.

[7] = Water solubility of free base and salts (salt screen); conditions: for Solubility: water, 10 mg solids per mL water

other data relating to the free base and each salt (salt formation, crystallinity, hygroscopicity, remarks) [1]: Amorphous, salt
Compound: L-Lactate

other data relating to the free base and each salt (salt formation, crystallinity, hygroscopicity, remarks) [1]: Crystalline Salt, low solubility
Compound: Fumarate

other data relating to the free base and each salt (salt formation, crystallinity, hygroscopicity, remarks) [1]: Crystalline salt, low solubility
Compound: O=S(=O)(O)O [Sulfate]

Solubility (physchem): < 1 µg/mL
other data relating to the free base and each salt (salt formation, crystallinity, hygroscopicity, remarks) [1]: very low solubility
Compound: COc1cc2nccc(Oc3ccc(NC(=O)C4(C(=O)Nc5ccc(F)cc5)CC4)cc3)c2cc1OC [Free base, N-(4-{[6,7-bis(methyloxy)quinolin-4-yl]oxy}phenyl)-N′-(4-fluorophenyl)cyclopropane-1,1-dicarboxamide]

other data relating to the free base and each salt (salt formation, crystallinity, hygroscopicity, remarks) [1]: Crystalline salt, low solubility
Compound: Malonate

weight gain due to absorption of H2O ([4]; highest among the salts tested): 8%
Solubility [7]: 26 µg/mL
other data relating to the free base and each salt (salt formation, crystallinity, hygroscopicity, remarks) [1]: Crystalline but Hygroscopic.
Compound: Phosphate

The remaining lines, values behind:

Compound: CC(=O)O [Acetate]
other data relating to the free base and each salt (salt formation, crystallinity, hygroscopicity, remarks) [1]: no salt formation; mixture of free base and acid

Compound: COc1cc2nccc(Oc3ccc(NC(=O)C4(C(=O)Nc5ccc(F)cc5)CC4)cc3)c2cc1OC.O=C(O)C[C@H](O)C(=O)O [Compound (I), N-(4-{[6,7-bis(methyloxy)quinolin-4-yl]oxy}phenyl)-N′-(4-fluorophenyl)cyclopropane-1,1-dicarboxamide, (L) Malate Salt]
change in assay, purity, moisture and dissolution ([2]; 25° C./60% relative humidity (RH)): no change in assay, purity, moisture and dissolution
change in assay, purity, moisture and dissolution ([2]; 40° C./60% RH): no change in assay, purity, moisture and dissolution
solvent losses (DSC/TGA) [3]: No solvent losses were observed
stable up to (DSC/TGA) [3]: up to 185 °C
uptake of water, reversibility [4]: reversible with a slight hysteresis
amount of water taken up ([4]; at 90% RH): about 0.60 wt %
amount of water associated with the salt [5]: about 0.5 wt %
solid state phase and degree of crystallinity ([6]; 75% RH at 40° C. for 1 week): remained unchanged
solubility (in words) [7]: sufficient solubility for use in a pharmaceutical composition
Solubility [7]: 59 µg/mL

Compound: Tosylate
Solubility [7]: 7 µg/mL
other data relating to the free base and each salt (salt formation, crystallinity, hygroscopicity, remarks) [1]: Crystalline salt, low solubility

Compound: Benzoate
other data relating to the free base and each salt (salt formation, crystallinity, hygroscopicity, remarks) [1]: no salt formation; mixture of free base and acid

Compound: C1=Cc2cccc(OC[C@H]3CNCCO3)c2C1.O=S(=O)(O)c1ccccc1 [Benzenesulfonate]
other data relating to the free base and each salt (salt formation, crystallinity, hygroscopicity, remarks) [1]: Crystalline Salt; possible sulfonic acid formation

Compound: Cl [Chloride]
moisture sensitivity, phase ([6]; high humidity (75% humidity) and high temperature (40° C.)): undesirable moisture sensitivity, changing phase
other data relating to the free base and each salt (salt formation, crystallinity, hygroscopicity, remarks) [1]: Crystalline but Hygroscopic; possible hydrate

Reference: US12275706B2, “Malate salt of N-(4-{[6,7-bis(methyloxy) quinolin-4-yl]oxy}phenyl)-N′-(4-fluorophenyl)cyclopropane-1,1-dicarboxamide, and crystalline forms thereof for the treatment of cancer” (Exelixis, Inc., priority 2009, dated 2025)
